Assays:
[1] = test system: IL-8 release from Caco-2 monolayers; experiment: Release of IL-8 from polarised Caco-2 monolayers stimulated with LPS, TNF-α, IFN-β; format: cell-based, human; conditions: for % increase in anti-inflammatory activity compared to equivalent formulation without bromelain (difference of means): plus 80 ug/ml bromelain
Procedure: Inflammatory model of Caco-2 polarised monolayer stimulated with inflammatory mediators LPS, TNF-α, IFN-β: Polarised Caco-2 models were generated as previously described. When cell cultures reached a baseline TER of >1000/cm^2, the monolayers were stimulated by addition of 0.6 ml containing 50 ng/ml IFN-β, 10 μg/ml LPS and 5 ng/ml TNFα to the basolateral compartment. Immediately after the addition of the stimulation cocktail 0.25 ml of GaRP±0-80 μg/ml bromelain was applied to the apical compartment. After the 24 h incubation culture supernatants from the apical side were collected for quantitation of IL-8.
The human colorectal adenocarcinoma cell-line C2BBe1 was grown and maintained in Dulbecco's modified Eagle's medium (DMEM) supplemented with 10% v/v fetal bovine serum (FBS), 4 mM L-glutamine, 100 U/ml penicillin and […] streptomycin. All experiments were conducted on C2BBe1 cells within 12 passages after thawing.
In an experiment to evaluate the anti-inflammatory effect of bromelain or various GaRP formulations, 0.25 ml of test samples was applied to the apical side for 24 h, at the same time 0.6 ml of a cocktail containing 50 ng/ml IFN+10 ug/ml LPS+5 ng/ml TNF was added to the basolateral side in this model. After the 24 h incubation culture supernatants from the apical side were collected and IL-8 quantitated by ELISA.

[2] = test system: Enterocyte; experiment: Observed therapeutic effective dose determined in the in vitro experiments (Table 4); format: cell-based, human
Procedure: (§1) The observed therapeutic effective dose was determined in the in vitro experiments described herein.
(§2) Table 4 summarises the observed therapeutic effective dose for each GaRP formulation component.

[3] = test system: Macrophage; experiment: as above; format: cell-based, human
Procedure: as §1, §2

[4] = test system: Macrophage; conditions: menthol was not tested in vitro; published literature; cited from earlier work
[5] = test system: Enterocyte; conditions: menthol was not tested in vitro; published literature; cited from earlier work
[6] = test system: Bacteria (AIEC obtained from IBD and IBS patients); conditions: menthol was not tested in vitro; published literature; cited from earlier work
[7] = formulation or component plus 80 ug/ml bromelain, 24 h
[8] = without bromelain, test sample apical 24 h, IFN+LPS+TNF cocktail basolateral

N[C@@H](Cc1c[nH]c2ccccc12)C(=O)O [L-tryptophan]
% inhibition of the release of IL-8 Median ± SEM [1, 7]: 76 ± 2%
% increase in anti-inflammatory activity compared to equivalent formulation without bromelain (difference of means) [1]: 62%
% inhibition of the release of IL-8 Median ± SEM [1, 8]: 14 ± 7%

CCCC(=O)O [sodium butyrate]
observed therapeutic effective dose, Target cell Enterocyte (pg/cell) [2]: 15 pg/cell
observed therapeutic effective dose, Target cell Macrophage (pg/cell) [3]: 300 pg/cell
% inhibition of the release of IL-8 Median ± SEM [1, 7]: 71 ± 7%
% increase in anti-inflammatory activity compared to equivalent formulation without bromelain (difference of means) [1]: 60%
% inhibition of the release of IL-8 Median ± SEM [1, 8]: 11 ± 15%

CSCC[C@H](N)C(=O)O [L-methionine]
% inhibition of the release of IL-8 Median ± SEM [1, 7]: 73 ± 10%
% increase in anti-inflammatory activity compared to equivalent formulation without bromelain (difference of means) [1]: 53%
% inhibition of the release of IL-8 Median ± SEM [1, 8]: 20 ± 5%

CC1CCC(C(C)C)C(O)C1 (centres unmarked) [Menthol]
therapeutic effective dose, Target cell Macrophage (pg/cell) [4]: 20 pg/cell
therapeutic effective dose, Target cell Enterocyte (pg/cell) [5]: 20 pg/cell
therapeutic effective dose, Target cell Bacteria (fg/cell) [6]: Not relevant

Source: patent publication US20240091324A1, “GASTROINTESTINAL HEALTH COMPOSITION” (priority 2019, published 2024)
